# Columns and labels:
# [1] = tested on: SARS-CoV-2; test: SARS-CoV-2 virus production in infected CaCo2 cells (fluorescence or luminescence normalized to Hoechst); details: for Fluorescence ratio: added substances at the fixed concentration indicated, CaCo2 cells, untreated = 0.2; for SARS-CoV-2 viral protein production in CaCo2 cells - effect of each substance at 10 μM (% of untreated): 10 μM in medium, low values indicate inhibition of viral protein production
# [2] = tested on: Salmonella typhimurium; test: Inhibition of growth of Salmonella typhimurium (optical density of culture); type: cell-based; details: after 9-20 h, no compound 0.943
# Protocol: (§1) Activity of substances in the inhibition of growth of bacteria. Bacteria including the species Escherichia coli, Bacillus pumilus, Salmonella sp., Micrococcus luteus and Staphylococcus carnosus are cultured in appropriate media (Luria broth for all except S. canosus). Overnight cultures are mixed with fresh medium to reach an optical density at […] of ca. 0.1 AU. These cultures are mixed with solutions of substances to be tested at concentrations ranging from 100 μM to 0.05 μM in a microtitre plate. The growth of the culture is monitored by measuring the optical density at various times after the addition of the inhibitor. Reduction in the rate of increase in optical density corresponds to an inhibition of bacterial growth. In the following tables, the activity of various of the test substances may be observed by reductions in optical density relative to untreated control cultures.
# [3] = tested on: Staphylococcus carnosus; test: Inhibition of growth of Staphylococcus carnosus (optical density of culture); type: cell-based; details: after 9-20 h, no compound 0.887
# Protocol: as §1
# [4] = tested on: Staphylococcus aureus Newman; test: Infection of mice by Staphylococcus aureus Newman (body weight, CFU from kidney); type: in vivo; details: FIG. 6; mice infected with Staphylococcus aureus Newman
# [5] = Dextran sulfate colitis model of inflammatory bowel disease in mice; type: in vivo, mouse; details: FIG. 18; all doses 1.34 μmol/kg; N=8
# Description: The potential efficacy of a Compound for Inflammatory bowel disease may be modeled as follows. C57 BLK6 or BALBc mice are provided with drinking water containing 2.5% or 2.8% dextran sulfate. Animals are weighed and observed for signs of intestinal disturbance daily. Signs include diarrhea or occult blood. Compound is formulated by mixing with a solution of 0.1 up to 1% citric acid depending on concentration. Compound is provided by oral gavage daily.
compound,measurement,setting,value
"CN(C)C(=O)COC(=O)Cc1ccc(OC(=O)c2ccc(NC(=N)N)cc2)cc1 [Camostat, reference compound]",Fluorescence ratio,[1]; 0.312 μM of the (first named) compound,0.09
same,Fluorescence ratio,[1]; 0.625 μM of the (first named) compound,0.08
same,Fluorescence ratio,[1]; 1.25 μM of the (first named) compound,0.01
same,Fluorescence ratio,[1]; 2.5 μM of the (first named) compound,0.03
same,Fluorescence ratio,[1]; 5 μM of the (first named) compound,0.07
same,SARS-CoV-2 viral protein production in CaCo2 cells - effect of each substance at 10 μM (% of untreated),[1],2 % of untreated
same,Fluorescence ratio,[1]; 10 μM of the (first named) compound,0.02
CCCC(=O)O[C@@H]1C(N(C)C)C[C@@H](C)O[C@H]1O[C@@H]1[C@@H](C)[C@H](O[C@H]2C[C@@](C)(OC)[C@@H](O)[C@H](C)O2)[C@@H](C)C(=O)O[C@H](CC)[C@@](C)(O)[C@H](O)[C@@H](C)N(C)C[C@H](C)C[C@@]1(C)O (stereo partly drawn) [Compound E-19],SARS-CoV-2 viral protein production in CaCo2 cells - effect of each substance at 10 μM (% of untreated),[1],34 % of untreated
CC[C@H]1OC(=O)[C@H](C)[C@@H](O[C@H]2C[C@@](C)(OC)[C@@H](O)[C@H](C)O2)[C@H](C)[C@@H](O[C@@H]2O[C@H](C)CC(N(C)C)[C@H]2O[N+](=O)[O-])[C@](C)(O)C[C@@H](C)CN(C)[C@H](C)[C@@H](OC)[C@]1(C)O (stereo partly drawn) [Compound E-11],Absorbance of culture medium at 600 nm,[2]; 0.8 μM,0.555
same,Absorbance of culture medium at 600 nm,[2]; 2 μM,0.587
same,Absorbance of culture medium at 600 nm,[2]; 3 μM,0.623
same,Absorbance of culture medium at 600 nm,[2]; 6 μM,0.627
same,Absorbance of culture medium at 600 nm,[2]; 13 μM,0.633
same,Absorbance of culture medium at 600 nm,[2]; 25 μM,0.697
same,Absorbance of culture medium at 600 nm,[2]; 50 μM,0.650
same,Absorbance of culture medium at 600 nm,[2]; 100 μM,0.562
same,SARS-CoV-2 viral protein production in CaCo2 cells - effect of each substance at 10 μM (% of untreated),[1],32 % of untreated
same,Absorbance of culture medium at 600 nm,[3]; 0.8 μM,0.941
same,Absorbance of culture medium at 600 nm,[3]; 2 μM,0.918
same,Absorbance of culture medium at 600 nm,[3]; 3 μM,0.890
same,Absorbance of culture medium at 600 nm,[3]; 6 μM,0.887
same,Absorbance of culture medium at 600 nm,[3]; 13 μM,0.822
same,Absorbance of culture medium at 600 nm,[3]; 25 μM,0.819
same,Absorbance of culture medium at 600 nm,[3]; 50 μM,0.574
same,Absorbance of culture medium at 600 nm,[3]; 100 μM,0.641
"CC[C@H]1OC(=O)[C@H](C)[C@@H](O[C@H]2C[C@@](C)(OC)[C@@H](O[N+](=O)[O-])[C@H](C)O2)[C@H](C)[C@@H](O[C@@H]2O[C@H](C)C[C@H](N(C)C)[C@H]2O)[C@](C)(O)C[C@@H](C)CN(C)[C@H](C)[C@@H](O)[C@]1(C)O [Compound E-1, (2S,3S,4R,6R)-6-(((2R,3S,4R,5R,8R,10R,11R,12S,13S, 14R)-11-(((2S,3R,4S,6R)-4-(dimethylamino)-3-hydroxy-6-methyltetrahydro-2H-pyran-2-yl)oxy)-2-ethyl-3,4,10-trihydroxy-3,5,6,8,10,12,14-heptamethyl-15-oxo-1-oxa-6-azacyclopentadecan-13-yl)oxy)-4-methoxy-2,4-dimethyltetrahydro-2H-pyran-3-yl nitrate]",Absorbance of culture medium at 600 nm,[2]; 0.8 μM,0.722
same,Absorbance of culture medium at 600 nm,[2]; 2 μM,0.761
same,Absorbance of culture medium at 600 nm,[2]; 3 μM,0.711
same,Absorbance of culture medium at 600 nm,[2]; 6 μM,0.741
same,Absorbance of culture medium at 600 nm,[2]; 13 μM,0.722
same,Absorbance of culture medium at 600 nm,[2]; 25 μM,0.736
same,Absorbance of culture medium at 600 nm,[2]; 50 μM,0.484
same,Absorbance of culture medium at 600 nm,[2]; 100 μM,0.557
same,Absorbance of culture medium at 600 nm,[3]; 0.8 μM,0.902
same,Absorbance of culture medium at 600 nm,[3]; 2 μM,0.856
same,Absorbance of culture medium at 600 nm,[3]; 3 μM,0.864
same,Absorbance of culture medium at 600 nm,[3]; 6 μM,0.625
same,Absorbance of culture medium at 600 nm,[3]; 13 μM,0.068
same,Absorbance of culture medium at 600 nm,[3]; 25 μM,0.078
same,Absorbance of culture medium at 600 nm,[3]; 50 μM,0.096
same,Absorbance of culture medium at 600 nm,[3]; 100 μM,0.157
CC[C@H]1OC(=O)[C@H](C)[C@@H](O[C@H]2C[C@@](C)(OC)[C@@H](O)[C@H](C)O2)[C@H](C)[C@@H](O[C@@H]2O[C@H](C)CC(N(C)C)[C@H]2O)[C@](C)(O)C[C@@H](C)CN(C)[C@H](C)[C@@H](O[N+](=O)[O-])[C@]1(C)O (stereo partly drawn) [Compound E-10],Absorbance of culture medium at 600 nm,[2]; 0.8 μM,0.334
same,Absorbance of culture medium at 600 nm,[2]; 2 μM,0.361
same,Absorbance of culture medium at 600 nm,[2]; 3 μM,0.402
same,Absorbance of culture medium at 600 nm,[2]; 6 μM,0.382
same,Absorbance of culture medium at 600 nm,[2]; 13 μM,0.399
same,Absorbance of culture medium at 600 nm,[2]; 25 μM,0.390
same,Absorbance of culture medium at 600 nm,[2]; 50 μM,0.315
same,Absorbance of culture medium at 600 nm,[2]; 100 μM,0.280
same,Absorbance of culture medium at 600 nm,[3]; 0.8 μM,0.862
same,Absorbance of culture medium at 600 nm,[3]; 2 μM,0.826
same,Absorbance of culture medium at 600 nm,[3]; 3 μM,0.768
same,Absorbance of culture medium at 600 nm,[3]; 6 μM,0.699
same,Absorbance of culture medium at 600 nm,[3]; 13 μM,0.702
same,Absorbance of culture medium at 600 nm,[3]; 25 μM,0.595
same,Absorbance of culture medium at 600 nm,[3]; 50 μM,0.433
same,Absorbance of culture medium at 600 nm,[3]; 100 μM,0.576
"CC[C@H]1OC(=O)[C@H](C)[C@@H](O[C@@H]2O[C@@H](C)[C@@H](OC(C)=O)[C@@H](OC(C)=O)[C@@H]2OC(C)=O)[C@H](C)[C@@H](O[C@@H]2O[C@H](C)C[C@H](N(C)C)[C@H]2O)[C@](C)(O)C[C@@H](C)CN(C)[C@H](C)[C@@H](O)[C@]1(C)O [Compound A-23, 3-descladinosyl-3-triacetylfucosylazithromycin]",SARS-CoV-2 viral protein production in CaCo2 cells - effect of each substance at 10 μM (% of untreated),[1],44 % of untreated
"CCCN(CCO)CC(O)CN(C)[C@H]1C[C@@H](C)O[C@@H](O[C@@H]2[C@@H](C)[C@H](O[C@H]3C[C@@](C)(OC)[C@@H](O)[C@H](C)O3)[C@@H](C)C(=O)O[C@H](CC)[C@@](C)(O)[C@H](O)[C@@H](C)N(C)C[C@H](C)C[C@@]2(C)O)[C@@H]1O (stereo partly drawn) [Compound A-24, (2R,3S,4R,5R,8R,10R,11R,12S,13S, 14R)-2-ethyl-3,4,10-trihydroxy-11-(((2S,3R,4R,6R)-3-hydroxy-4-((2-hydroxy-3-((2-hydroxyethyl)(propyl)amino)propyl) (methyl)amino)-6-methyltetrahydro-2H-pyran-2-yl)oxy)-13-(((2R,4R,58,6S)-5-hydroxy-4-methoxy-4,6-dimethyltetrahydro-2H-pyran-2-yl)oxy)-3,5,6,8,10,12,14-heptamethyl-1-oxa-6-azacyclopentadecan-15-one]",SARS-CoV-2 viral protein production in CaCo2 cells - effect of each substance at 10 μM (% of untreated),[1],35 % of untreated
"CC[C@H]1OC(=O)[C@H](C)[C@@H](O[C@H]2C[C@@](C)(OC)[C@@H](O)[C@H](C)O2)[C@H](C)[C@@H](O[C@@H]2O[C@H](C)C[C@H](N(C)C)[C@H]2O)[C@](C)(O)C[C@@H](C)CN(C)[C@H](C)[C@@H](O)[C@]1(C)O [Azithromycin, reference compound]",Bacteria quantified as CFU recovered from a standard sample of kidney,[4],decreases recovered bacteria in a dose responsive manner
"CC[C@H]1OC(=O)[C@H](C)[C@@H](O)[C@H](C)[C@@H](O[C@@H]2O[C@H](C)C[C@H](NC)[C@H]2O)[C@](C)(O)C[C@@H](C)CN(C)[C@H](C)[C@@H](O)[C@]1(C)O [Compound A-25, (2R,3S,4R,5R,8R,10R,11R,12S,13S, 14R)-2-ethyl-3,4,10,13-tetrahydroxy-11-(((2S,3R,4S,6R)-3-hydroxy-6-methyl-4-(methylamino)tetrahydro-2H-pyran-2-yl)oxy)-3,5,6,8,10,12,14-heptamethyl-1-oxa-6-azacyclopentadecan-15-one]",SARS-CoV-2 viral protein production in CaCo2 cells - effect of each substance at 10 μM (% of untreated),[1],34 % of untreated
CCC(=O)O[C@@H]1[C@@H](C)N(C)C[C@H](C)C[C@@](C)(O)[C@H](O[C@@H]2O[C@H](C)CC(N(C)C)[C@H]2O)[C@@H](C)[C@H](O[C@H]2C[C@@](C)(OC)[C@@H](O)[C@H](C)O2)[C@@H](C)C(=O)O[C@H](CC)[C@@]1(C)O (stereo partly drawn) [Compound E-18],SARS-CoV-2 viral protein production in CaCo2 cells - effect of each substance at 10 μM (% of untreated),[1],49 % of untreated
CCCCCCCCCCN(C)C1C[C@@H](C)O[C@@H](O[C@@H]2[C@@H](C)[C@H](O[C@H]3C[C@@](C)(OC)[C@@H](O[N+](=O)[O-])[C@H](C)O3)[C@@H](C)C(=O)O[C@H](CC)[C@@](C)(O)[C@H](O)[C@@H](C)N(C)C[C@H](C)C[C@@]2(C)O)[C@@H]1O (stereo partly drawn) [Compound E-3],Body weight and clinical score of BALBc mice at day 9 after commencing 2.5% DSS in water,[5],stimulate inflammation

# Source: patent US20230131943A1, “ANTI-INFECTIVE AND ANTI-VIRAL COMPOUNDS AND COMPOSITIONS” (priority 2020, published 2023)
